The values below come from BindingDB's records for doi:10.1074/jbc.M114.574061 (AstraZeneca R&D Boston, 2014).

What all share (assay): Aminoacylation Assay
Holding throughout (settings): pH 8

The target of test [1] is Phenylalanine--tRNA ligase alpha/beta subunit (Escherichia coli (strain K12), UniProt P07395+P08312). As to the method: (§1) Compounds were solubilized in DMSO. Serial 2-fold dilutions covering two concentration ranges, 10 mM to 19.5 μM and 100 μM to 195 nM, were prepared. 0.6 μl/well of the diluted compound solutions (50× the final assay concentration) were added to white 384-well polystyrene assay plates (Thermo Fisher Scientific/Matrix Technology Corp., Hudson, NH). Uninhibited control wells (MAX)received 2 μl of 30% (v/v) DMSO. Baseline wells (MIN) received 2 μl of a solution containing 30% (v/v)DMSO and 15 mM L-phenylalanine (Sigma-Aldrich). Assays were performed in a buffer consisting of 50 mM Tris-HCl (pH 8.0), 50 mM NH4Cl, 10 mM MgCl2, 2 mM DTT, 0.005% Tween 20 (Surfact-Amps-20, Thermo Fisher Scientific/Pierce Protein Research products, Suwanee, GA), and 0.1 mM EDTA-NaOH (pH 8.0). Compounds were preincubated with 15 μl/well of either 2 nM E. coli PheRS, 2 nM H. influenzae PheRS, or 0.8 nM P. aeruginosa PheRS in buffer for 30 min at 2× final assay concentrations. The reactions were initiated with 15 μl/well of a 2× substrate solution in buffer containing 2 μM E. coli phenylalanine tRNA (Sigma-Aldrich), 100 μM ATP, and 2 μM [3H]Phe with a specific radioactivity of 6.3 Ci/mmol (PerkinElmer Life Sciences). The reactions were quenched after 30 min with 15 μl/well of a solution containing 4 mg/ml PVT/PEI/WGA type A SPA beads (PerkinElmer Life Sciences), 262 mM sodium citrate (pH 2.0), and 150 mM NaCl. The plates were sealed with transparent film (PerkinElmer Life Sciences). The beads were allowed to settle for a minimum of 2 h before scintillation counting with a Top-Count plate reader (PerkinElmer Life Sciences). [3H] counts (CPM) for aminoacylated tRNA were measured for 1 min/well.
Phenylalanine--tRNA ligase alpha/beta subunit (Escherichia coli (strain K12), UniProt P07395+P08312), sequence (P08312 whole entry): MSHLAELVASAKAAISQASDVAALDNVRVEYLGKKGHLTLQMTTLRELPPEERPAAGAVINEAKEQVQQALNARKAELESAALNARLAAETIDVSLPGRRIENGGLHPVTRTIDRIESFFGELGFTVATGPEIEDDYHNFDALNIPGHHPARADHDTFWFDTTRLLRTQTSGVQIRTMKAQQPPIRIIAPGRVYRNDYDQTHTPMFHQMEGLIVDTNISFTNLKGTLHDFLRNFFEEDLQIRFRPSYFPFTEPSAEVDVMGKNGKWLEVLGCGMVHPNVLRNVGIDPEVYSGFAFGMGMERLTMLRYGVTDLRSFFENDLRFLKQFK
Phenylalanine--tRNA ligase alpha/beta subunit (Escherichia coli (strain K12), UniProt P07395+P08312), sequence (P07395 whole entry): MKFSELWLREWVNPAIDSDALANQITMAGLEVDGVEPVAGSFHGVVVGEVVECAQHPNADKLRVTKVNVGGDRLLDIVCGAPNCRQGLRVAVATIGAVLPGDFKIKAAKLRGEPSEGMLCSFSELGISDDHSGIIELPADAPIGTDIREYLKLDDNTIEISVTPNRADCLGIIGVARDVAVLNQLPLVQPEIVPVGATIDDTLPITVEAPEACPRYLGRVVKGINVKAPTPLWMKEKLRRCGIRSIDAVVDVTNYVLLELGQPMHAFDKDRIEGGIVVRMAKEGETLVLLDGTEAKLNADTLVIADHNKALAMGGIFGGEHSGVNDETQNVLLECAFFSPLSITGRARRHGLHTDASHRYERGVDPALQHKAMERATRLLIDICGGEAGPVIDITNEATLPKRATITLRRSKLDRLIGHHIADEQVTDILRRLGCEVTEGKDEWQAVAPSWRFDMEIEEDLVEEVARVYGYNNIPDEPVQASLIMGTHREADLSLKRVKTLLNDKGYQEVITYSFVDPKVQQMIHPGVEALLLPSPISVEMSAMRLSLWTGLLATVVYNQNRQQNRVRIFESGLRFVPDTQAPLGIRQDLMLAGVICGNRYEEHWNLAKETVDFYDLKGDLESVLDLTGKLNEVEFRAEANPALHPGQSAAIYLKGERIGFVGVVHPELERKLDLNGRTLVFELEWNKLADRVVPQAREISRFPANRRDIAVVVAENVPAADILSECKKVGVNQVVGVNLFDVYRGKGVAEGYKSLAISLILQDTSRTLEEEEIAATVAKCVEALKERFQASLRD

Test [2] has as its target Phenylalanine--tRNA ligase alpha/beta subunit (Pseudomonas aeruginosa (strain ATCC 15692 / PAO1 / 1C / PRS 101 / LMG12228), UniProt A0A8B5A132+Q9I0A4). Here is the method: as §1
In test [3] the target is Phenylalanine--tRNA ligase alpha/beta subunit (Pseudomonas aeruginosa, UniProt Q9I0A3+Q9I0A4). As to the method:
as §1

Phenylalanine--tRNA ligase alpha/beta subunit (Pseudomonas aeruginosa (strain ATCC 15692 / PAO1 / 1C / PRS 101 / LMG12228), UniProt A0A8B5A132+Q9I0A4), sequence (A0A8B5A132 whole entry): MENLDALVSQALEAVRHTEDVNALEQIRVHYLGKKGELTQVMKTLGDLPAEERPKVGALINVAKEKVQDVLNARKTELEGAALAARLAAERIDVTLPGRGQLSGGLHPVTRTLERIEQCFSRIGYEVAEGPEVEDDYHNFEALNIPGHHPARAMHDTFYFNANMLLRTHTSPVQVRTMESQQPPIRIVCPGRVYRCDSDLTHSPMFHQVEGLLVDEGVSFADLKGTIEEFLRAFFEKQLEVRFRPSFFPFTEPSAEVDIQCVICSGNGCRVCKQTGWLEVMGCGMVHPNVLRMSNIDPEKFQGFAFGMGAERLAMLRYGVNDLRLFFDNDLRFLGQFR
Phenylalanine--tRNA ligase alpha/beta subunit (Pseudomonas aeruginosa (strain ATCC 15692 / PAO1 / 1C / PRS 101 / LMG12228), UniProt A0A8B5A132+Q9I0A4), sequence (Q9I0A4 whole entry): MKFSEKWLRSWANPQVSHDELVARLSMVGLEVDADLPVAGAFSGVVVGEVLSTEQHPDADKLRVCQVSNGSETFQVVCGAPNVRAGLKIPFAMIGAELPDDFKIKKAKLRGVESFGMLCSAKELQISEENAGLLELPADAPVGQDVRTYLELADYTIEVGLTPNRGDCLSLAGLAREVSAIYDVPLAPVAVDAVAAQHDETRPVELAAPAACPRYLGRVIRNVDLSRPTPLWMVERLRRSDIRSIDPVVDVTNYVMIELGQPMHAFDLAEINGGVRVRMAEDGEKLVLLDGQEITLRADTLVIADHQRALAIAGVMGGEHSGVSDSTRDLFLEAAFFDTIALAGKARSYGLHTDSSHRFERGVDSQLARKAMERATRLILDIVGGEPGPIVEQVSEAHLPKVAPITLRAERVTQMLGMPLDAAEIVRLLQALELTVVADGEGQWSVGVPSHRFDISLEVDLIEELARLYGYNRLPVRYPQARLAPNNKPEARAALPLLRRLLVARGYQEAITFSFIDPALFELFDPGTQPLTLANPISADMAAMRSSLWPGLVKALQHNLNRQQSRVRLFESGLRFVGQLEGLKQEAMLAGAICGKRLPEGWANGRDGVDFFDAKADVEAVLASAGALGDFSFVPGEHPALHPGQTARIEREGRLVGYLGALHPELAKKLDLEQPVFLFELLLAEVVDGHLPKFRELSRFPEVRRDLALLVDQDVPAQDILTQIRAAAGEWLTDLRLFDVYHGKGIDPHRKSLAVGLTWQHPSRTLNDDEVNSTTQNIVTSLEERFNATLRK
Phenylalanine--tRNA ligase alpha/beta subunit (Pseudomonas aeruginosa, UniProt Q9I0A3+Q9I0A4), sequence (Q9I0A3 whole entry): as the sequence (A0A8B5A132 whole entry) above
Phenylalanine--tRNA ligase alpha/beta subunit (Pseudomonas aeruginosa, UniProt Q9I0A3+Q9I0A4), sequence (Q9I0A4 whole entry): as the sequence (Q9I0A4 whole entry) above

By IC50 is commonly meant the concentration needed to halve the response being measured. Lower therefore signals higher potency. `NS(=O)(=O)CCNC(=O)c1csc(COc2ccc(Cl)cc2)n1` [2-((4-Chlorophenoxy)methyl)-N-(2-sulfamoylethyl)thiazole-4-carboxamide (4c)]: the IC50 in test [1] was 190 nM; in test [2], 26000 nM.

For `COc1cccc(-c2ncc(C(F)(F)F)[nH]2)c1` [2-(3-methoxyphenyl)-5-(trifluoromethyl)-1H-imidazole (3d)], the IC50 in test [1] is 16000 nM; in test [3] it was greater than 200000 nM.

Take `CNC(=O)COc1cccc(Nc2cc(Cl)ccn2)c1` [2-(3-(4-Chloropyridin-2-ylamino)phenoxy)-N-methylacetamide (2a)]: the IC50 in test [1] came to 1400 nM; in test [2], 82000 nM.

Turning to `O=C(Nc1cccc(S(=O)(=O)NCCc2c[nH]c3ccccc23)c1)Nc1nccs1` [N-(2-(1H-indol-3-yl)ethyl)-3-(3-thiazol-2-ylureido)benzenesulfonamide (1b)], the figures for the IC50 in test [1] and in test [3] were 2.2 nM and 13 nM, respectively.

With `CCOC(=O)COc1cccc(-c2cc(C(F)(F)F)[nH]n2)c1` [Ethyl 2-(3-(5-(trifluoromethyl)-1H-pyrazol-3-yl)phenoxy)acetate (3b)], the IC50 in test [1] came out at 80 nM; in test [3], 11000 nM.

Consider `Cc1ccc(OCc2nc(C(=O)NC3CCS(=O)(=O)C3)cs2)cc1` (stereo unspecified) [N-(1,1-dioxothiolan-3-yl)-2-[(4-methylphenoxy)methyl]thiazole-4-carboxamide (4a)], for which the IC50 in test [1] was found to be 1400 nM; in test [2], 80000 nM.

As for `COc1cccc(-c2cc(C(F)(F)F)n[nH]2)c1` [5-(3-Methoxyphenyl)-3-(trifluoromethyl)-1H-pyrazole (3a)], the concentration for half-maximal inhibition (IC50) was 60 nM in test [1] and 10000 nM in test [3].

In the case of `O=C(COc1cccc(Nc2cc(Cl)ccn2)c1)NC1CCS(=O)(=O)C1` (stereo unspecified) [2-[3-[(4-Chloro-2-pyridyl)amino]phenoxy]-N-(1,1-dioxothiolan-3-yl)acetamide (2c)], the IC50 in test [1] is 100 nM; in test [2] it was 34000 nM.

For the compound `CCOC(=O)COc1cccc(-c2cc(C(F)F)n[nH]2)c1` [Ethyl 2-(3-(3-(difluoromethyl)-1H-pyrazol-5-yl)phenoxy)acetate (3c)], the figures for the IC50 in test [1] and in test [3] were 1000 nM and 59000 nM, respectively.

`O=C(Nc1cccc(S(=O)(=O)N2CCN(c3ccccn3)CC2)c1)Nc1nccs1` [1-(3-(4-(Pyridin-2-yl)piperazin-1-ylsulfonyl)phenyl)-3-(thiazol-2-yl)urea (1a)]: the concentration for half-maximal inhibition (IC50) was 2.7 nM in test [1] and 22 nM in test [2].

As to `CS(=O)(=O)C1(CCNC(=O)COc2cccc(-c3cc(C(F)(F)F)[nH]n3)c2)CC1` [N-(2-(1-(methylsulfonyl)cyclopropyl)ethyl)-2-(3-(5-(trifluoromethyl)-1H-pyrazol-3-yl)phenoxy)acetamide (3e)], the figures for the IC50 in test [1] and in test [3] were 70 nM and 4200 nM, respectively.

As for `CNC(=O)COc1cccc(Nc2cc(C#N)ccn2)c1` [2-(3-(4-Cyanopyridin-2-ylamino)phenoxy)-N-methylacetamide (2b)], the IC50 was determined as 560 nM in test [1] and 41000 nM in test [2].

As to `N#CCNC(=O)c1csc(COc2ccc(Cl)cc2)n1` [2-((4-Chlorophenoxy)methyl)-N-(cyanomethyl)thiazole-4-carboxamide (4b)], the IC50 in test [1] was 100 nM; in test [2], 13000 nM.
